Km data for two substances are collected here from PMC2064103 (The Journal of Cell Biology, 2007).

The Km is the concentration of substrate that gives half-maximal velocity.

Common to all, as to test: radiolabelled glycopeptide formation, ConA Sepharose capture, gamma counting
The subject of one assay is E. histolytica OST. Type of assay: biochemical, Entamoeba histolytica. The note with it: 15 μM acceptor tripeptide; Mg2+, Mn2+, pH 7.4; non-cooperative.
For the next assay, the system named is T. vaginalis OST. Type of assay: biochemical, Trichomonas vaginalis. Conditions: 10 μM acceptor tripeptide; Mg2+, Mn2+, pH 7.4; non-cooperative.
The subject of a further assay is T. cruzi OST. The format is biochemical, Trypanosoma cruzi. Conditions: 10 μM acceptor tripeptide; Mg2+, Mn2+, pH 7.4; non-cooperative.

On to M5GN2-PP-Dol, for which the Km in the assay on E. histolytica OST came to 0.72 µM; with T. vaginalis OST it was 0.22 µM.

As to M9GN2-PP-Dol, in the assay on T. cruzi OST, the Km turned out to be 0.49 µM.
